From article PMC6835763, “Influence of Short Cationic Lipopeptides with Fatty Acids of Different Chain Lengths on Bacterial Biofilms Formed on Polystyrene and Hydrogel Surfaces” (Pharmaceutics, 2019)
≈ marks a conversion by molar mass, not a printed value. Read-outs that look alike come from different tables or passages of the source. Where a SMILES comes first, the peptide text is derived from it. Bridges are numbered along the chain shown (N, C = ends). Roman numbers before positions name the chains, in order. The star is where a group is joined. Palmitoyl = CCCCCCCCCCCCCCCC(=O)*; Myristoyl = CCCCCCCCCCCCCC(=O)*; Lauroyl = CCCCCCCCCCCC(=O)*

Assays:
[1] = system: Escherichia coli ATCC 25922; type: cell-based
Experimental: (§1) The biofilms of bacteria associated with the biofilm-related infections were cultured on 96-well flat bottom PS and on CL placed in 24-well plates. The bacteria at initial inoculums of 5 × 10^8 CFU/mL in MHB II were added to the plates and incubated at 37 °C under aerobic conditions. After 24 h of incubation, all cultures were rinsed three times with PBS and fresh medium was added. Subsequently, the obtained biofilm cultures were exposed to solutions of antimicrobials applied at graded concentrations ranging from 1 to 512 μg/mL for 24 h at 37 °C. The anti-biofilm activity of antimicrobials was visualized by resazurin (final concentration per sample = 0.005%) in the same way as in the MBFIC assay. All experiments were performed in triplicate and included growth controls (positive control: bacterial suspension without antimicrobials) and sterility controls (negative controls: sterile MBH II medium).

[2] = system: Pseudomonas aeruginosa ATCC 9027; type: cell-based
Experimental: as §1

[3] = system: Staphylococcus aureus ATCC 25923; type: cell-based
Experimental: as §1

[4] = system: Proteus mirabilis PCM 543; type: cell-based
Experimental: as §1

[5] = system: Staphylococcus epidermidis ATCC 14990; type: cell-based
Experimental: as §1

[6] = system: Enterococcus faecalis ATCC 29212; type: cell-based
Experimental: as §1

[7] = system: Escherichia coli ATCC 25922; type: cell-based; remark: listed apart in the source
Experimental: (§2) The reference strains of gram-positive and gram-negative bacteria (Table 2) were obtained from the Polish Collection of Microorganisms (Polish Academy of Science, Wroclaw, Poland). The microorganisms were cultured in Muller Hinton Broth II (MHB II, Biocorp, Warsaw, Poland), overnight, at 37 °C. The MICs of synthetic lipopeptides and conventional antimicrobials were determined using the broth microdilution method according to the Clinical and Laboratory Standard Institute (CLSI) guidelines on reference strains. […] The PS were incubated under aerobic conditions at 37 °C for 18 h. The MIC (μg/mL) was assumed as the lowest concentration of the compound that inhibited the growth of the microorganisms. All experiments were performed in triplicate and included the growth and sterility controls.

[8] = system: Pseudomonas aeruginosa ATCC 9027; type: cell-based; remark: listed apart in the source
Experimental: as §2

[9] = system: Staphylococcus aureus ATCC 25923; type: cell-based; remark: listed apart in the source
Experimental: as §2

[10] = system: Proteus mirabilis PCM 543; type: cell-based; remark: listed apart in the source
Experimental: as §2

[11] = system: Staphylococcus epidermidis ATCC 14990; type: cell-based; remark: listed apart in the source
Experimental: as §2

[12] = system: Enterococcus faecalis ATCC 29212; type: cell-based; remark: listed apart in the source
Experimental: as §2

[13] = RP-HPLC retention to evaluate the hydrophobicity of lipopeptides; type: physicochemical; details: chromatographic, Luna C18(2) 3.0 × 100 mm, 5.0 µm, linear 20–80% acetonitrile in water over 10 min, 0.1% formic acid, 0.5 mL/min, UV 214 nm, used to evaluate hydrophobicity
Experimental: The crude peptide was lyophilized and subsequently purified by RP-HPLC. The purifications were carried out on a Phenomenex Gemini-NX C18 column (21.20 × 100 mm, 5.0 µm particle size, and 110 Å pore size). Acetonitrile and water, both containing 0.1% of TFA, were used as the mobile phase. UV detection at 214 nm was used. The crude peptides were eluted with a linear 20–80% acetonitrile gradient in deionized water over 60 min at a flow rate of 10.0 mL/min. The purity and identity of the peptides were confirmed with LC-MS analysis. A Waters Alliance e2695 RP-HPLC system (Waters, Milford, MA, USA) with Waters 2998 PDA (Waters, Milford, MA, USA) and Acquity QDA detectors (Empower®3 software, Database Version 7.21.00.00) was used. All analyses were carried out on a Phenomenex, Luna C18(2) column (3.0 × 100 mm, 5.0 µm particle size, 100 Å pore size). The samples were analyzed with a linear 20–80% acetonitrile gradient in deionized water over 10 min at a flow rate of 0.5 mL/min with UV detection at 214 nm. Both eluents contained 0.1% (v/v) of formic acid. The pure fractions (>95%, by HPLC analysis) were collected and lyophilized. The retention time and percentage of ACN (%) at which each peptide was eluted are included in Table 1 to evaluate the hydrophobicity of lipopeptides. The identity of all compounds was confirmed using mass spectrometry (Waters Alliance e2695 system with Acquity QDA detector, Waters, Milford, MA, USA) with electrospray ionization in positive ion mode (ESI-MS). In this mode, a proton is attached to basic moieties (amine groups, guanidine groups). The theoretical mass of the peptide was calculated and then expected ions (m/z—mass to charge ratio) were compared to measured m/z. The results are presented in Table 1, and mass spectra are presented in the Supplementary Materials.

[14] = 24 h biofilm on 96-well flat bottom PS, 5 × 10^8 CFU/mL in MHB II, exposure 1–512 μg/mL for 24 h at 37 °C, resazurin, triplicate
[15] = 24 h biofilm on contact lenses (CL) in 24-well plates, 5 × 10^8 CFU/mL in MHB II, exposure 1–512 μg/mL for 24 h at 37 °C, resazurin, triplicate
[16] = MHB II, ca. 5 × 10^6 CFU/mL, 96-well PS, 1–512 μg/mL, 37 °C, 18 h, triplicate

Compound	MBEC E. coli, CL ([1]; ATCC 25922, 24 h)	MBEC P. aeruginosa, CL ([2]; ATCC 9027, 24 h)	MBEC S. aureus, CL ([3]; ATCC 25923, 24 h) [µg/mL]	MBEC P. mirabilis, CL ([4]; PCM 543, 24 h)	MBEC S. epidermidis, CL ([5]; ATCC 14990, 24 h) [µg/mL]	MBEC E. faecalis, CL ([6]; ATCC 29212, 24 h)	MIC E. coli ([7]; ATCC 25922, 18 h) [µg/mL]	MIC P. aeruginosa ([8]; ATCC 9027, 18 h) [µg/mL]	MIC S. aureus ([9]; ATCC 25923, 18 h) [µg/mL]	MIC P. mirabilis ([10]; PCM 543, 18 h) [µg/mL]	MIC S. epidermidis ([11]; ATCC 14990, 18 h) [µg/mL]	MIC E. faecalis ([12]; ATCC 29212, 18 h) [µg/mL]	% ACN at which the peptide was eluted [13] [%]	tR' (adjusted retention time) [13] [min]	concentrations eliminating the EC biofilm (MBEC range) ([1]; ATCC 25922, 24 h) [µg/mL]	also measured
CCCCCCCCCCCCCCCC(=O)N[C@@H](CCCCN)C(=O)N[C@@H](CCCNC(=N)N)C(N)=O [Lipopeptide 8, C16-KR-NH2] (Palmitoyl-Lys-Arg-NH2)	128 µg/mL	32 µg/mL	128	> 512 µg/mL	32	64/64 μg/mL	64 (≈ 119 µM)	128 (≈ 237 µM)	32 (≈ 59.3 µM)	512 (≈ 948 µM)	8 (≈ 14.8 µM)	64 (≈ 119 µM)	44.3	4.06	–	–
CCCCCCCCCCCCCCCC(=O)N[C@@H](CCCCN)C(=O)N[C@@H](CCCCN)C(=O)N[C@@H](CCCCN)C(N)=O [Lipopeptide 7, C16-KKK-NH2]	128 µg/mL	512/>512 μg/mL	256	512/>512 μg/mL	64	16 µg/mL	32 (≈ 50 µM)	64 (≈ 100 µM)	64 (≈ 100 µM)	256 (≈ 400 µM)	16 (≈ 25 µM)	16 (≈ 25 µM)	37.9	2.98	64 to 128	–
(C10)2-KKKK-NH2 [Lipopeptide 9]	–	–	–	–	–	–	–	–	–	–	–	–	39.6	3.27	–	MBEC E. coli, PS [1, 14]: 64 µg/mL; MBEC E. coli, CL [1, 15]: 128 µg/mL; concentrations eliminating the EC biofilm (MBEC range) ([1]; range over PS and CL): 64 to 128 µg/mL; MBEC P. aeruginosa, PS [2, 14]: 512 µg/mL; MBEC P. aeruginosa, CL [2, 15]: 256 µg/mL; MBEC S. aureus, PS [3, 14]: 64 µg/mL; MBEC S. aureus, CL [3, 15]: 128 µg/mL; MBEC P. mirabilis, PS [4, 14]: >512/>512 μg/mL; MBEC P. mirabilis, CL [4, 15]: >512/>512 μg/mL; MBEC S. epidermidis, PS [5, 14]: 16 µg/mL; MBEC S. epidermidis, CL [5, 15]: 64 µg/mL; MBEC E. faecalis, PS [6, 14]: 32 µg/mL; MBEC E. faecalis, CL [6, 15]: 128 µg/mL; MIC E. coli [7, 16]: 16 µg/mL; MIC P. aeruginosa [8, 16]: 16 µg/mL; MIC S. aureus [9, 16]: 8 µg/mL; MIC P. mirabilis [10, 16]: 512 µg/mL; MIC S. epidermidis [11, 16]: 2 µg/mL; MIC E. faecalis [12, 16]: 16 µg/mL
CCCCCCCCCCCCCCCC(=O)N[C@@H](CCCCN)C(=O)NCC(=O)N[C@@H](CCCCN)C(N)=O [Lipopeptide 5, C16-KGK-NH2] (Palmitoyl-Lys-Gly-Lys-NH2)	64 µg/mL	256 µg/mL	512	>512/>512 μg/mL	128	32 µg/mL	16 (≈ 28.1 µM)	256 (≈ 450 µM)	64 (≈ 113 µM)	512 (≈ 900 µM)	32 (≈ 56.3 µM)	32 (≈ 56.3 µM)	43.7	3.95	64 to 128	–
CCCCCCCCCCCCCC(=O)N[C@@H](CCCCN)C(=O)N[C@@H](CCCNC(=N)N)C(N)=O [Lipopeptide 4, C14-KR-NH2] (Myristoyl-Lys-Arg-NH2)	256 µg/mL	>512/>512 μg/mL	512	>512/>512 μg/mL	32	256 µg/mL	32 (≈ 62.5 µM)	128 (≈ 250 µM)	32 (≈ 62.5 µM)	512 (≈ 1000 µM)	4 (≈ 7.82 µM)	32 (≈ 62.5 µM)	39.7	3.29	–	–
CCCCCCCCCCCC(=O)N[C@@H](CCCCN)C(=O)N[C@@H](CCCCN)C(=O)N[C@@H](CSSC[C@H](NC(=O)[C@H](CCCCN)NC(=O)[C@H](CCCCN)NC(=O)CCCCCCCCCCC)C(N)=O)C(N)=O [Lipopeptide 1, C12-KKC-NH2] (I: Lauroyl-Lys-Lys-Cys-NH2 / II: Lauroyl-Lys-Lys-Cys-NH2; disulfide I:3-II:3)	256/256 μg/mL	256 µg/mL	256	>512/>512 μg/mL	128	128 µg/mL	16 (≈ 14.3 µM)	32 (≈ 28.7 µM)	8 (≈ 7.17 µM)	–	2 (≈ 1.79 µM)	4 (≈ 3.59 µM)	38.6	3.10	–	–
